Laboratory results from US7812008B2, “9-substituted tetracyclines” (Wyeth LLC, priority 2005, dated 2010).
In brackets after ≈: the same amount, converted by molar mass. Where two headings read alike, the source gives them in different places.

Assays:
E. coli GC2270 (tet(M)) = assay: MIC broth microdilution, E. coli GC2270 (tet(M)); type: cell-based; conditions: MHBII, 18-22 hours at 35° C.
Method: (§1) Methods for in Vitro Antibacterial Evaluation
(§2) The minimum inhibitory concentration (MIC)
(§3) Antimicrobial susceptibility testing. The in vitro activities of representative examples of antibiotics of the invention are determined by the broth microdilution method as recommended by the National Committee for Clinical Laboratory Standards (NCCLS) (1). Mueller-Hinton II broth (MHBII)(BBL Cockeysville, Md.) is the medium employed in the testing procedures. Microtiter plates containing serial dilutions of each antimicrobial agent are inoculated with each organism to yield the appropriate density (10^5 CFU/ml) in a 100 μl final volume. The plates are incubated for 18-22 hours at 35° C. in ambient air. […] NCCLS. 2000. Methods for Dilution Antimicrobial Susceptibility Tests for Bacteria That Grow Aerobically; Approved Standards: M7-A5, vol. 20. National Committe for Clinical Laboratory Standards, Wayne, Pa.

[1] = system: E. coli GC4559 (parent GC4560); assay: MIC broth microdilution, E. coli GC4559 (parent GC4560); type: cell-based; conditions: MHBII, 18-22 hours at 35° C.
Method: as §1, §2, §3

[2] = system: E. coli GC4560 (IMP mutant); assay: MIC broth microdilution, E. coli GC4560 (IMP mutant); type: cell-based; conditions: MHBII, 18-22 hours at 35° C.
Method: as §1, §2, §3

[3] = system: E. coli GC2203 (ATCC Control); assay: MIC broth microdilution, E. coli GC2203 (ATCC Control); type: cell-based; conditions: MHBII, 18-22 hours at 35° C.
Method: as §1, §2, §3

E. coli GC1073 (tet(B)) = assay: MIC broth microdilution, E. coli GC1073 (tet(B)); type: cell-based; conditions: MHBII, 18-22 hours at 35° C.
Method: as §1, §2, §3

[4] = system: S. aureus GC1131 (Clinical); assay: MIC broth microdilution, S. aureus GC1131 (Clinical); type: cell-based; conditions: MHBII, 18-22 hours at 35° C.
Method: as §1, §2, §3

[5] = system: S. aureus GC6466 (tet(M)); assay: MIC broth microdilution, S. aureus GC6466 (tet(M)); type: cell-based; conditions: MHBII, 18-22 hours at 35° C.
Method: as §1, §2, §3

[6] = system: S. aureus GC6467 (tet(M) + (K)); assay: MIC broth microdilution, S. aureus GC6467 (tet(M) + (K)); type: cell-based; conditions: MHBII, 18-22 hours at 35° C.
Method: as §1, §2, §3

[7] = system: S. aureus GC1079 (tet(K)); assay: MIC broth microdilution, S. aureus GC1079 (tet(K)); type: cell-based; conditions: MHBII, 18-22 hours at 35° C.
Method: as §1, §2, §3

[8] = system: S. aureus GC4536 (Smith MP -In Vivo); assay: MIC broth microdilution, S. aureus GC4536 (Smith MP -In Vivo); type: cell-based; conditions: MHBII, 18-22 hours at 35° C.
Method: as §1, §2, §3

[9] = system: S. aureus GC2216 (ATCC Control); assay: MIC broth microdilution, S. aureus GC2216 (ATCC Control); type: cell-based; conditions: MHBII, 18-22 hours at 35° C.
Method: as §1, §2, §3

[10] = system: E. faecalis GC4555 (ATCC Control); assay: MIC broth microdilution, E. faecalis GC4555 (ATCC Control); type: cell-based; conditions: MHBII, 18-22 hours at 35° C.
Method: as §1, §2, §3

[11] = system: E. faecalis GC2267 (tet(L) + (M) + (S)); assay: MIC broth microdilution, E. faecalis GC2267 (tet(L) + (M) + (S)); type: cell-based; conditions: MHBII, 18-22 hours at 35° C.
Method: as §1, §2, §3

[12] = system: E. faecalis GC2242 (Van-resistant); assay: MIC broth microdilution, E. faecalis GC2242 (Van-resistant); type: cell-based; conditions: MHBII, 18-22 hours at 35° C.
Method: as §1, §2, §3

[13] = system: S. pneumoniae* GC4465 (Clinical); assay: MIC broth microdilution, S. pneumoniae GC4465 (Clinical); type: cell-based; conditions: 18-22 hours at 35° C.
Method: as §1, §2, §3

[14] = system: S. pneumoniae* GC1894 (Clinical); assay: MIC broth microdilution, S. pneumoniae GC1894 (Clinical); type: cell-based; conditions: 18-22 hours at 35° C.
Method: as §1, §2, §3

[15] = system: S. pyogenes* GC4563 (Clinical); assay: MIC broth microdilution, S. pyogenes GC4563 (Clinical); type: cell-based; conditions: 18-22 hours at 35° C.
Method: as §1, §2, §3

[16] = system: M. catarrhalis* GC6907 (Clinical); assay: MIC broth microdilution, M. catarrhalis GC6907 (Clinical); type: cell-based; conditions: 18-22 hours at 35° C.
Method: as §1, §2, §3

[17] = system: H. influenzae<> GC6896 (ATCC Control); assay: MIC broth microdilution, H. influenzae GC6896 (ATCC Control); type: cell-based; conditions: 18-22 hours at 35° C.
Method: as §1, §2, §3

[18] = system: C. albicans GC3066 ATCC (Control); assay: MIC broth microdilution, C. albicans GC3066 ATCC (Control); type: cell-based; conditions: 18-22 hours at 35° C.
Method: as §1, §2, §3

[19] = system: Staphylococcal aureus Smith M P; assay: In vivo antibacterial evaluation, acute lethal infection in mice; conditions: Mus musculus; single oral dose 30 minutes after intraperitoneal challenge; female CD-1 mice; 7 day survival ratios, 3 tests pooled; read-out: SOD* ED50
Method: In Vivo Antibacterial Evaluation: The therapeutic effects of representative examples of the invention are determined against acute lethal infection with Staphylococcal aureus Smith M P, Female mice, strain CD-1 (Charles River Laboratoties), ca. 20 grams, are challenged by an intraperitoneal injection of sufficient bacteria (suspended in broth or hog mucin) to kill non-treated controls within 24-28 hours. Antibacterial agents, contained in 0.5 ml of 0.2% aqueous agar, are administered subcutaneously or orally 30 minutes after injection. When an oral dosing schedule is used, animal are deprived of food for 5 hours before and 2 hours after injection. Five mice are treated at each dose level. The 7 day survival ratios from 3 separate tests are pooled for calculation of median effective dose (ED50).

[20] = system: Staphylococcal aureus Smith M P; assay: MIC reported in Table 2 beside the in vivo ED50; type: cell-based; conditions: Staphylococcus aureus, infecting strain S. aureus Smith MP
Method: Antimicrobial susceptibility testing. The in vitro activities of representative examples of antibiotics of the invention are determined by the broth microdilution method as recommended by the National Committee for Clinical Laboratory Standards (NCCLS) (1). Mueller-Hinton II broth (MHBII)(BBL Cockeysville, Md.) is the medium employed in the testing procedures. Microtiter plates containing serial dilutions of each antimicrobial agent are inoculated with each organism to yield the appropriate density (10^5 CFU/ml) in a 100 μl final volume. The plates are incubated for 18-22 hours at 35° C. in ambient air. […] NCCLS. 2000. Methods for Dilution Antimicrobial Susceptibility Tests for Bacteria That Grow Aerobically; Approved Standards: M7-A5, vol. 20. National Committe for Clinical Laboratory Standards, Wayne, Pa. In Vivo Antibacterial Evaluation: The therapeutic effects of representative examples of the invention are determined against acute lethal infection with Staphylococcal aureus Smith M P, Female mice, strain CD-1 (Charles River Laboratoties), ca. 20 grams, are challenged by an intraperitoneal injection of sufficient bacteria (suspended in broth or hog mucin) to kill non-treated controls within 24-28 hours. Antibacterial agents, contained in 0.5 ml of 0.2% aqueous agar, are administered subcutaneously or orally 30 minutes after injection. When an oral dosing schedule is used, animal are deprived of food for 5 hours before and 2 hours after injection. Five mice are treated at each dose level. The 7 day survival ratios from 3 separate tests are pooled for calculation of median effective dose (ED50).

[21] = system: Staphylococcal aureus Smith M P; assay: In vivo antibacterial evaluation, acute lethal infection in mice; conditions: Mus musculus, iv, 168 h; single intraveneous dose; female CD-1 mice; 7 day survival ratios, 3 tests pooled; read-out: SIV* ED50

| SMILES | minimum inhibitory concentration (MIC) (E. coli GC2270 (tet(M))) | minimum inhibitory concentration (MIC) [1] | minimum inhibitory concentration (MIC) [2] | minimum inhibitory concentration (MIC) [3] | minimum inhibitory concentration (MIC) (E. coli GC1073 (tet(B))) | minimum inhibitory concentration (MIC) [4] | minimum inhibitory concentration (MIC) [5] | minimum inhibitory concentration (MIC) [6] | minimum inhibitory concentration (MIC) [7] | minimum inhibitory concentration (MIC) [8] | minimum inhibitory concentration (MIC) [9] | minimum inhibitory concentration (MIC) [10] | minimum inhibitory concentration (MIC) [11] | minimum inhibitory concentration (MIC) [12] | minimum inhibitory concentration (MIC) [13] | minimum inhibitory concentration (MIC) [14] | minimum inhibitory concentration (MIC) [15] | minimum inhibitory concentration (MIC) [16] | minimum inhibitory concentration (MIC) [17] | minimum inhibitory concentration (MIC) [18] | further results |
| --- | --- | --- | --- | --- | --- | --- | --- | --- | --- | --- | --- | --- | --- | --- | --- | --- | --- | --- | --- | --- | --- |
| CN(C)c1cc(NC(=O)CN(O)Cc2ccccc2)c(O)c2c1C[C@H]1C[C@H]3[C@H](N(C)C)C(O)=C(C(N)=O)C(=O)[C@@]3(O)C(O)=C1C2=O [Example 6, (4S,4aS,5aR,12aS)-9-[(N-benzyl-N-hydroxyglycyl)amino]-4,7-bis(dimethylamino)-3,10,12,12a-tetrahydroxy-1,11-dioxo-1,4,4a,5,5a,6,11,12a-octahydrotetracene-2-carboxamide] | 16 | 8 | 0.25 | 16 | 32 | 4 | 2 | 64 | 8 | 2 | 2 | 1 | 8 | 2 | 0.12 | 0.25 | 0.25 | 0.50 | 2 | >64 | ED50 [19]: > 16 mg/kg; MIC [20]: 2 µg/mL (≈ 3.15 µM); ED50 [21]: > 4 mg/kg |
| CON(C)CC(=O)Nc1cc(N(C)C)c2c(c1O)C(=O)C1=C(O)[C@]3(O)C(=O)C(C(N)=O)=C(O)[C@@H](N(C)C)[C@@H]3C[C@@H]1C2 [Example 7, (4S,4aS,5aR,12aS)-4,7-bis(dimethylamino)-3,10,12,12a-tetrahydroxy-9-[(N-methoxy-N-methylglycyl)amino]-1,11-dioxo-1,4,4a,5,5a,6,11,12a-octahydrotetracene-2-carboxamide] | >64 | >64 | 1 | >64 | >64 | 4 | 2 | >64 | 32 | 2 | 2 | 1 | 8 | 2 | 0.50 | 0.50 | 0.25 | 0.50 | 4 | >64 | ED50 [19]: 16 to 32 mg/kg; MIC [20]: 2 µg/mL (≈ 3.49 µM); ED50 [21]: 0.5 to 2 mg/kg |
